# Values of other authors in patent US20240350374A1, “COMPOSITION AND METHODS OF TREATMENT USING TRANSDERMAL SUPPLEMENTATION” (Xygenyx Inc., priority 2023, published 2024).
# Where a SMILES comes first, the peptide text is derived from it.
# Assays:
# [1] = tested on: skin; conditions: as penetration enhancer
# [2] = tested on: wide dynamic range neurons in the ventroposterolateral nucleus of the thalamus; conditions: believed
# [3] = tested on: skin; conditions: topical application, concentrations 0.5-5%
# [4] = tested on: skin; conditions: topical formulations, within four weeks of treatment
# [5] = tested on: F2-isoprostane; conditions: large doses of 1600-3200 IU/day
# [6] = compared to α-tocopherol = 1.0
# [7] = tested on: rheumatoid arthritis; conditions: arthritic subjects
# [8] = even when dietary intake occurs in equal portions
# [9] = tested on: markers of inflammation; conditions: supplementation, individuals with metabolic syndrome
# [10] = in vivo
compound,measurement,setting,value
CC(C)[C@@H]1CC[C@@H](C)C[C@H]1O [Menthol],factor of increase of transdermal drug uptake / penetration,[1],≥ 10
"CCCCCc1cc(O)c2c(c1)OC(C)(C)C1CCC(C)=CC21 (stereo not shown) [THC, Δ-9-tetrahydrocannabinol]",power in mediating pain relative to morphine,[2],ten times more powerful than morphine
"C=CCCCCCCCCC(=O)N[C@@H](Cc1ccccc1)C(=O)O [UP, Undecylenoyl phenylalanine]",time to skin lightening effects,[3],≥ 7 days
"CC12CCC(CC1)C(C)(C)O2 [eucalyptol, 1,8-epoxy-p-menthane]",factor of increase of transdermal drug uptake / penetration,[1],more than 10
"CC[C@H](C)[C@H](NC(=O)[C@H](CC(=O)O)NC(=O)[C@@H](N)CCCCN)C(=O)N[C@@H](CCCNC(N)=O)C(N)=O [tripeptide-10 citrulline, Tripeptide-10 citrulline] (HELM PEPTIDE1{K.D.I.[Cit].[am]}$$$$V2.0)",improvement of suppleness,[4],≤ 54%
Cc1c(C)c2c(c(C)c1O)CC[C@@](C)(CCC[C@H](C)CCC[C@H](C)CCCC(C)C)O2 [α-tocopherol],reduction of risk of coronary disease,"dietary supplementation, doses up to 400 IU/day",up to 34%
same,reduction of risk of developing neurodegenerative diseases (Alzheimer's Syndrome or dementia),"dietary supplementation, doses up to 400 IU/day, controlled trials",≤ 24%
same,reduction in the development of age-related cataracts,"in combination with 10-20 mg β-carotene and 400-500 mg vitamin C, doses around 400-500 IU",23%
same,blood plasma concentration of F2-isoprostane,[5],significantly lower
same,relative biological activity,[6],1.0
C=C1CC/C=C(\C)CC[C@@H]2[C@@H]1CC2(C)C [β-caryophyllene],increases of protein carbonyl groups and myeloperoxidase activity in liver and plasma,[7],eliminated
same,number of circulating and articular leukocytes,[7],reduced
same,swelling of joints and lymph nodes,[7],reduced
Cc1cc(O)c(C)c2c1O[C@](C)(CCC[C@H](C)CCC[C@H](C)CCCC(C)C)CC2 [β-tocopherol],relative biological activity,[6],0.5
Cc1c(O)cc2c(c1C)O[C@](C)(CCC[C@H](C)CCC[C@H](C)CCCC(C)C)CC2 [γ-tocopherol],concentration in vivo relative to α-tocopherol,[8],roughly 10%
same,relative biological activity,[6],0.1
Cc1cc(O)cc2c1O[C@](C)(CCC[C@H](C)CCC[C@H](C)CCCC(C)C)CC2 [δ-tocopherol],markers of inflammation in the blood,[9],reduced
same,relative biological activity,[6],0.03
HGH: hormone comprising a peptide chain that is synthesized in the pituitary gland,biological half-life,[10],10-20 minutes
